Tests used:
[1] = target: T1, Ras farnesyl transferase (Homo sapiens, UniProt P49354+P49356); test: Ras farnesyl transferase inhibiting activity (filter-binding, tritium-farnesylpyrophosphate, Ras-CVLS substrate); assay type: biochemical; settings: recombinant Ras farnesyl transferase, 30 minutes at 37° C., read-out: Ftase IC50
T1 construct: made in house
Experimental: The enzyme reaction was performed in 50 μl of 50 mM Sodium HEPES buffer solution containing 25 mmol of potassium chloride. 25 mmol of magnesium chloride, 10 mmol of DTT and 50 μmol of zinc chloride. 1.5 μmol of Ras substrate protein, 0.15 μmol of tritium-farnesylpyrophosphate and 4.5 nmol of farnesyl transferase were used.
More specifically, in the initial step, farnesyl transferase was added to the above buffer solution, reaction was maintained for 30 minutes at 37° C. and then the reaction was stopped by adding 1 ml of ethanol solution containing 1M HCl. The formed precipitates were adsorbed to GF/B filter using Hopper harvestor(Hopper #225V) for filter-binding, washed with ethanol, and then radioactivity of the dried filter was measured using LKB β counter. Enzyme titer was measured in the unsaturated state of substrate where the concentrations of Ras substrate protein and farnesyl transferase have quantitative relationship. Enzyme inhibiting activity was measured using less than 5% of total reaction solution of the compound according to the present invention dissolved in dimethylsulfoxide(DMSO) solution as a reagent. Enzyme inhibiting activity was represented by percentage of the amount of the farnesyl incorporated with the reagent to that without the reagent.

[2] = test system: intracellular Ras farnesyl transferase, Rat2 cell line; test: Intracellular Ras farnesyl transferase inhibiting activity in transformed Rat2 cells (35S-methionine labelling, Y13-259 immunoprecipitation, SDS-PAGE); assay type: cell-based; settings: Rattus norvegicus; transformed Rat2 fibroblast cell line; concentration inhibiting 50% of farnesyl binding of Ras protein; read-out: Ftase CIC50
Experimental: In the present experiment, Rat2 cell line which expresses C-Harvey-Ras protein having transforming activity and Rat2 cell line(Korean patent application No. 97-14409) which is transformed with fused protein of H-Ras substituted with polybasic lysine domain at C-terminus of K-Ras were used. The experiment was performed by the modified Declue's method(Declue. J. E. et al., Cancer Research, 1991. 51, 712). Hereinafter, the experimental method will be described in more detail.
3×10^5 cells of transformed Rat2 fibroblast cell line were sprayed on 60 mm cell cultivation dish and cultivated for 48 hours in a cell incubator at 37° C. and after 50% or more of density was reached, it was treated with a reagent. The compound according to the present invention dissolved in dimethylsulfoxide(DMSO) was used as the reagent. 1% of dimethylsulfoxide was used in both control and experimental groups. After 4 hours from the treatment of the reagent, methionine labeled with 150 μCi of radioactive isotope, ^35S per 1 ml of medium, was added and after cultivating for 20 hours, the cells were washed with physiological saline water. The cells were lysed using 1 ml of cool cell lysis buffer solution(50 mM of Sodium Herpiss buffer solution containing 5 mmol of magnesium chloride. 1 mmol of DTT, 1% NP 40, 1 mmol of EDTA, 1 mmol of PMSF, 2 μmol of leupeptin, 2 μmol of pepstatin A and 2 μmol of antipain) and the supernatant was obtained by high-velocity centrifugation of 12,000 g×5 minutes. The amount of the labeled radioisotope of the supernatent was measured and standardized to obtain a quantitative result in immunoprecipitation reaction and then. Y13-259, monoclonal antiboby specifically binding to Ras protein(Furth, M. E. et al., J. Virol, 1982, 43, 294) was added and reacted for 15 hours at 4° C. Protein A bound to goat anti-murine Immunoglobulin antibody-agarose suspension was added to the solution and reacted for 1 hour at 4° C. and then, to remove unspecific binding product, immunoprecipitates were washed with buffer solution(50 mM Tris chloride buffer solution containing 50 mmol of sodium chloride, 0.5% of sodium dioxycolate, 0.5% of NP 40 and 0.1% of SDS). The precipitates were boiled in reagent buffer solution for electrophoresis and then, electrophoresis was performed using 13.5% of SDS polyacrylamide gel. After electrophoresis, the gel was fixed and dried. Then, the gel was exposed to X-ray film, developed and printed. From the result of the experiment, intensities of band of protein with and without farnesyl of Ras protein were measured, and the concentration of reagent inhibiting 50% of farnesyl binding was defined as CIC50, an intracellular Ras farnesyl transferase inhibiting activity.

[3] = target: T2, Geranylgeranyl transferase (Bos taurus, UniProt P29702+Q5EAD5); test: Geranylgeranyl transferase inhibiting activity (geranylgeranyl pyrophosphate, Ras-CVIL substrate); assay type: biochemical; settings: geranylgeranyl transferase purified from bovine brain, read-out: GGtase IC50
T2 construct: Geranylgeranyl transferase was purified from bovine brain; from tissue; host or cells: bovine brain
Experimental: To evaluate the selective enzyme inhibiting activity of the compound according to the present invention, inhibiting activity on geranylgeranyl transferase was measured. Geranylgeranyl transferase was purified from bovine brain with the method modified from Schber's method(Schber et al., J. Biol. Chem. 1990, 265, 14701). and substantially the same experiment as that of farnesyl transferase was performed using geranylgeranyl pyrophosphate and Ras-CVIL substrate protein under the similar condition to farnesyl transferase reaction.

SMILES	IC50 [1]	IC50 [2]	IC50 [3]
CC1(c2cccc3ccccc23)C(=O)N(CCCn2ccnc2)C(=O)N1Cc1cccc(Cl)c1 (stereo not drawn) [Compound 19, 1-(3-chloro-benzyl)-3-(3-imidazol-1-yl-propyl)-5-methyl-5-naphthalen-1-yl-imidazolidin-2,4-dione]	0.24 µM	< 20 µM	> 10 µM
CC1(c2cccc3ccccc23)C(=O)N(CCCn2ccnc2)C(=O)N1Cc1cccc(Br)c1 (stereo not drawn) [Compound 20, 1-(3-bromo-benzyl)-3-(3-imidazol-1-yl-propyl)-5-methyl-5-naphthalen-1-yl-imidazolidin-2,4-dione]	0.3 µM	< 20 µM	> 10 µM
CC1(c2cccc3ccccc23)C(=O)N(CCCn2ccnc2)C(=O)N1Cc1ccc(Br)cc1 (stereo not drawn) [Compound 21, 1-(4-bromo-benzyl)-3-(3-imidazol-1-yl-propyl)-5-methyl-5-naphthalen-1-yl-imidazolidin-2,4-dione]	0.15 µM	< 20 µM	> 10 µM
CC1(c2cccc3ccccc23)C(=O)N(CCCn2ccnc2)C(=O)N1Cc1cccc(C(F)(F)F)c1 (stereo not drawn) [Compound 22, 1-(3-trifluoromethyl-benzyl)-3-(3-imidazol-1-yl-propyl)-5-methyl-5-naphthalen-1-yl-imidazolidin-2,4-dione]	1.7 µM	< 20 µM	> 10 µM
CC1(c2cccc3ccccc23)C(=O)N(CCCn2ccnc2)C(=O)N1Cc1cccc(OC(F)(F)F)c1 (stereo not drawn) [Compound 23, 1-(3-trifluoromethoxy-benzyl)-3-(3-imidazol-1-yl-propyl)-5-methyl-5-naphthalen-1-yl-imidazolidin-2,4-dione]	3 µM	< 20 µM	> 10 µM
CC1(c2cccc3ccccc23)C(=O)N(CCCn2ccnc2)C(=O)N1Cc1ccc(Oc2ccccc2)cc1 (stereo not drawn) [Compound 24, 3-(3-imidazol-1-yl-propyl)-5-methyl-5-naphthalen-1-yl-1-(4-phenoxy-benzyl)-imidazolidin-2,4-dione]	0.75 µM	< 20 µM	> 10 µM
CC1(c2cccc3ccccc23)C(=O)N(CCCn2ccnc2)C(=O)N1Cc1cccc(Oc2ccccc2)c1 (stereo not drawn) [Compound 25, 3-(3-imidazol-1-yl-propyl)-5-methyl-5-naphthalen-1-yl-1-(3-phenoxy-benzyl)-imidazolidin-2,4-dione]	0.72 µM	< 20 µM	> 10 µM
CSc1ccc(CN2C(=O)N(CCCn3ccnc3)C(=O)C2(C)c2cccc3ccccc23)cc1 (stereo not drawn) [Compound 26, 3-(3-imidazol-1-yl-propyl)-1-(4-methylsulfanyl-benzyl)-5-methyl-5-naphthalen-1-yl-imidazolidin-2,4-dione]	0.7 µM	< 20 µM	> 10 µM
CSCc1ccc(CN2C(=O)N(CCCn3ccnc3)C(=O)C2(C)c2cccc3ccccc23)cc1 (stereo not drawn) [Compound 27, 3-(3-imidazol-1-yl-propyl)-1-(4-methylsulfanylmethyl-benzyl)-5-methyl-5-naphthalen-1-yl-imidazolidin-2,4-dione]	0.21 µM	< 20 µM	> 10 µM
CC1(c2cccc3ccccc23)C(=O)N(CCCn2ccnc2)C(=O)N1Cc1ccc(S(C)(=O)=O)cc1 (stereo not drawn) [Compound 28, 3-(3-imidazol-1-yl-propyl)-1-(4-methylsulfonyl-benzyl)-5-methyl-5-naphthalen-1-yl-imidazolidin-2,4-dione]	1.1 µM	< 20 µM	> 10 µM
CSc1ccc(CN2C(=O)N(CCCn3ccnc3)C(=O)C2(C)c2cccc3ccccc23)cc1C#N (stereo not drawn) [Compound 29, 5-[3-(3-imidazol-1-yl-propyl)-5-methyl-5-naphthalen-1-yl-2,4-dioxo-imidazolidin-1-ylmethyl]-2-methylsulfanyl-benzonitrile]	0.08 µM	< 20 µM	> 10 µM

Source: patent publication US6384061B1, “Hydantoin compounds and methods related thereto” (LG Chemical Ltd., priority 2000, dated 2002)
